According to patent publication US20200123190A1:

System: human pancreatic cancer cells (MIA-Paca-2)
Assay: Cell growth inhibitory effect, alamarBlue
Assay type: cell-based
Conditions: MIA-Paca-2, cultured for 3 days
Method: Each of the test compounds (DMSO solutions in various concentrations) was added to 100 μL of a culture solution containing human pancreatic cancer cells (MIA-Paca-2) (cell count: about 5×10^3 cells) and cultured for 3 days. The cell growth inhibitory effect was investigated by fluorescence color development using alamarBlue reagent. Each of their IC50 values was determined.

| Molecule | IC50 (Homo sapiens, 72 h) | IC50 |
| --- | --- | --- |
| Nc1ccn([C@@H]2O[C@H](CO)[C@@H](O)C2(F)F)c(=O)n1 [Gemcitabine, 2′-Deoxy-2′,2′-difluorocytidine, reference compound] | 7.4 µM |  |
| O,O′— Di (4-chloro)benzyl 2′-deoxy-2′,2′-difluoro-5′-cytidylate [Compound (2)] |  | 18 µM |
| O,O′— Di(4-bromo)benzyl 2′-deoxy-2′,2′-difluoro-5′-cytidylate [Compound (3)] |  | 21.8 µM |
| O,′-Di (4-fluoro)benzyl 2′-deoxy-2′,2′-difluoro-5′-cytidylate [Compound (1)] |  | 9.8 µM |
